# Literature values, collected in patent publication US7977373B2, “Prodrugs of ion channel modulating compounds and uses thereof” (Cardiome Pharma Corp., priority 2004, dated 2011).
structure (smiles),measurement,setting,value
CCCCCCCN(CC)CCCC(O)c1ccc(NS(C)(=O)=O)cc1 (centres unmarked) [ibutilide],patients requiring cardioversion for refractory ventricular arrhythmias,,~1.7%
same,risk of ventricular proarrhythmia,"estimated, patients",~4.4%
